The source made the active and inactive calls. The rule behind the calls is not given here. A value given as a limit tells only on which side of the number the result lay.

Experiment [1] deals with Panel leukemia (Carcinoma cell lines). In words: Effective dose for differentiation -inducing activity against human promyelocytic leukemia cells. It counts as functional. The settings on record: read-out: ED50 (the source's name).
The nature of experiment [2]: Ratio of the ED50 of compound to that of ED50 of retinoic acid, expressed as relative activity. Format: functional.
Experiment [3] deals with Panel leukemia (Carcinoma cell lines). In words: Effective dose for differentiation-inducing activity against human promyelocytic leukemia cells. Format: functional, cell-based.

Regarding `CC1(C)CCOc2ccc(C(=O)Nc3ccc(C(=O)O)cc3)cc21`, in experiment [1], the EC50 was determined as 800 nM. Also, the Ratio in experiment [2] is 0.0035.

For the compound `CC(C)(C)c1ccc(NC(=O)c2ccc(C(=O)O)cc2)cc1`, the EC50 in experiment [1] is more than 10000 nM. The Ratio in experiment [2] was less than 0.001.

For `CC1(C)CCOc2c(Cl)cc(C(=O)Nc3ccc(C(=O)O)cc3)cc21`, in experiment [1], the EC50 is 75 nM. The Ratio in experiment [2] turned out to be 0.037.

Consider `CCc1cccc(NC(=O)c2ccc(C(=O)O)cc2)c1`, for which the ED50 entry in experiment [3] was “inactive”.

Regarding `Cc1cccc(NC(=O)c2ccc(C(=O)O)cc2)c1`, in experiment [3], the ED50 result is “inactive”.

On to `CC1(C)CCC(C)(C)c2cc(C(=O)Nc3ccc(C(=O)O)cc3)ccc21`, for which, in experiment [1], the EC50 came to 0.34 nM. In experiment [2], the Ratio worked out at 7.2.

With `CC1(C)CCSc2ccc(NC(=O)c3ccc(C(=O)O)cc3)cc21`, the EC50 in experiment [1] turned out to be 73 nM. In addition, in experiment [2], the Ratio was 0.051.

As for `CC(C)(C)c1cc(NC(=O)c2ccc(C(=O)O)cc2)cc(C(C)(C)C)c1`, the EC50 in experiment [1] turned out to be 36 nM. Further, in experiment [2], the Ratio worked out at 0.15.

Regarding `CC(C)(C)c1cc(C(=O)Nc2ccc(C(=O)O)cc2)cc(C(C)(C)C)c1`, the EC50 in experiment [1] was found to be 48 nM. In addition, in experiment [2], the Ratio was found to be 0.056.

For the compound `CC1(C)CCOc2ccc(NC(=O)c3ccc(C(=O)O)cc3)cc21`, in experiment [1], the EC50 was more than 1000 nM. Further, the Ratio in experiment [2] was less than 0.0001.

In the case of `CC(C)(C)c1cccc(NC(=O)c2ccc(C(=O)O)cc2)c1`, the EC50 in experiment [1] turned out to be 700 nM. Further, in experiment [2], the Ratio is 3.2.

Consider `O=C(O)c1ccc(C(=O)Nc2cccc3c2CCCC3)cc1`, for which the ED50 result in experiment [3] is “inactive”.

On to `CN(C(=O)c1ccc(C(=O)O)cc1)c1ccc2c(c1)C(C)(C)CCC2(C)C`, for which the EC50 in experiment [1] was more than 1000 nM. Further, the Ratio in experiment [2] was less than 0.0001.

Take `CN(C(=O)c1ccc2c(c1)C(C)(C)CCC2(C)C)c1ccc(C(=O)O)cc1`: the EC50 in experiment [1] was more than 1000 nM. For the same compound, the Ratio in experiment [2] was less than 0.0001.

`CC(C)c1ccc(C(=O)Nc2ccc(C(=O)O)cc2)cc1C(C)C`: the EC50 in experiment [1] was 68 nM. Moreover, the Ratio in experiment [2] was 0.04.

`CC1(C)CCC(C)(C)c2c(NC(=O)c3ccc(C(=O)O)cc3)cccc21`: the EC50 in experiment [1] was more than 1000 nM. Also, the Ratio in experiment [2] was less than 0.0001.

Regarding `O=C(O)c1ccc(C(=O)Nc2cccc3ccccc23)cc1`, in experiment [3], the ED50 result is “inactive”.

For `CC(C)c1cccc(C(C)C)c1NC(=O)c1ccc(C(=O)O)cc1`, the ED50 result in experiment [3] was “inactive”.

On to `CC(C)c1ccc(NC(=O)c2ccc(C(=O)O)cc2)cc1C(C)C`, for which the EC50 in experiment [1] is 2.1 nM. The Ratio in experiment [2] was determined as 1.4.

In the case of `CC(C)c1cc(NC(=O)c2ccc(C(=O)O)cc2)cc(C(C)C)c1`, the EC50 in experiment [1] was 38 nM. The Ratio in experiment [2] was determined as 0.042.

For the compound `CN(C)c1cccc(NC(=O)c2ccc(C(=O)O)cc2)c1`, in experiment [3], the ED50 entry was “inactive”.

Consider `CC(C)c1ccc(NC(=O)c2ccc(C(=O)O)cc2)c(C(C)C)c1`, for which, in experiment [3], the ED50 result is “inactive”.

Consider `CC(C)c1ccccc1NC(=O)c1ccc(C(=O)O)cc1`, for which the ED50 entry in experiment [3] was “inactive”.

Take `CCc1ccc(NC(=O)c2ccc(C(=O)O)cc2)cc1CC`: in experiment [1], the EC50 was determined as 260 nM. Moreover, in experiment [2], the Ratio was determined as 0.0077.

In the case of `CC1(C)CCC(C)(C)c2cc(NC(=O)c3ccc(C(=O)O)cc3)c(N)cc21`, the EC50 in experiment [1] worked out at 560 nM. For the same compound, the Ratio in experiment [2] came to 0.011.

Regarding `CC(C)c1ccc(C(C)C)c(NC(=O)c2ccc(C(=O)O)cc2)c1`, the ED50 result in experiment [3] is “inactive”.

Regarding `CC(C)c1cccc(NC(=O)c2ccc(C(=O)O)cc2)c1`, the EC50 in experiment [1] stood at 680 nM. The Ratio in experiment [2] came to 1.3.

On to `CC1(C)CCC(C)(C)c2cc(NC(=O)c3ccc(C(=O)O)cc3)c(Br)cc21`, for which the EC50 in experiment [1] is more than 1000 nM. Moreover, the Ratio in experiment [2] is less than 0.0001.

Take `CC12CCC(C)(CC1)c1cc(NC(=O)c3ccc(C(=O)O)cc3)ccc12`: the EC50 in experiment [1] stood at 68 nM. For the same compound, the Ratio in experiment [2] is 0.059.

`O=C(O)c1ccc(C(=O)Nc2ccccc2)cc1`: the ED50 result in experiment [3] was “inactive”.

For `CC(C)(C)c1cccc(C(=O)Nc2ccc(C(=O)O)cc2)c1`, in experiment [1], the EC50 is more than 10000 nM. For the same compound, the Ratio in experiment [2] was less than 0.001.

Regarding `Cc1cc2c(cc1NC(=O)c1ccc(C(=O)O)cc1)C(C)(C)CCC2(C)C`, the EC50 in experiment [1] amounted to 350 nM. Moreover, in experiment [2], the Ratio was determined as 0.006.

Regarding `CC1(C)CCC(C)(C)c2cc([N+](=O)[O-])c(NC(=O)c3ccc(C(=O)O)cc3)cc21`, the EC50 in experiment [1] was more than 10000 nM. Besides, in experiment [2], the Ratio is less than 0.001.

With `CC(C)(C)c1cc(C(C)(C)C)c(NC(=O)c2ccc(C(=O)O)cc2)c(C(C)(C)C)c1`, the ED50 result in experiment [3] was “inactive”.

For `O=C(O)c1ccc(C(=O)Nc2cccc(Br)c2)cc1`, in experiment [3], the ED50 entry is “inactive”.

As to `O=C(O)c1ccc(C(=O)Nc2ccc3ccccc3c2)cc1`, the ED50 entry in experiment [3] was “inactive”. Also, in experiment [2], the Ratio was 3.5.

Take `CC1(C)CCS(=O)(=O)c2ccc(C(=O)Nc3ccc(C(=O)O)cc3)cc21`: the ED50 result in experiment [3] is “inactive”.

As to `CC1(C)CCC(C)(C)c2cc(NC(=O)c3ccc(C(=O)O)cc3)ccc21` [TAMIBAROTENE], the EC50 in experiment [1] turned out to be 0.79 nM. Besides, in experiment [2], the Ratio was determined as 3.5.

With `CC(C)c1ccc(NC(=O)c2ccc(C(=O)O)cc2)cc1`, the EC50 in experiment [1] came out at 910 nM. Also, in experiment [2], the Ratio stood at 9.8.

With `O=C(O)c1ccc(NC(=O)c2ccccc2)cc1`, the ED50 result in experiment [3] was “inactive”.

Regarding `CC1=C(/C=C/C(C)=C/C=C/C(C)=C/C(=O)O)C(C)(C)CCC1` [TRETINOIN], the EC50 in experiment [1] stood at 2.4 nM. Further, the Ratio in experiment [2] stood at 1.

Regarding `O=C(O)c1ccc(C(=O)Nc2cccc(-c3ccccc3)c2)cc1`, the ED50 entry in experiment [3] is “inactive”.

For the compound `O=C(O)c1ccc(C(=O)Nc2cccc(C3CCCCC3)c2)cc1`, in experiment [1], the EC50 is more than 1000 nM. In experiment [2], the Ratio was less than 0.0001.

On to `O=C(O)c1ccc(C(=O)Nc2ccc3c(c2)C2CCC3CC2)cc1`, for which the EC50 in experiment [1] is more than 10000 nM. For the same compound, the Ratio in experiment [2] is less than 0.001.

Regarding `CC(C)(C)c1ccc(C(=O)Nc2ccc(C(=O)O)cc2)cc1`, the EC50 in experiment [1] was more than 10000 nM. Moreover, the Ratio in experiment [2] is less than 0.001.

Source of the values: ChEMBL document CHEMBL1124011, “Retinobenzoic acids. 1. Structure-activity relationships of aromatic amides with retinoidal activity” (1988).
